Reference: patent US7858665B2, “Drugs for chronic pain” (Nicox S.A., priority 2002, dated 2010)

Assays:
[1] = test system: chronic constriction injury of the rat sciatic nerve; assay: Neuropathic pain model: chronic constriction injury of the rat sciatic nerve, vocalization threshold to paw pressure; type: in vivo; settings: for Vocalization threshold to pressure in the injured paw (VTPP): 175 μmoles/kg, ip, day 14 post lesion
Description: We have tested the antinoceptive effects of compound of formula (XVA, Example 1), hereinafter NO-gabapentin, in the model of neuropathic pain constituted by the chronic constriction injury of the rat sciatic nerve. The parent compound gabapentin has been used as reference drug.
The unilateral peripheal mononeuropathy was obtained according to the method described by Bennet G J and Xie Y K, Pain (33) 1988: 87-107. Sample populations ranging from 8 to 12 rats (SD males weighting 250-300 g) for condition were used. The antinoceptive effect of the drugs was determined by measuring the vocalization threshold (VTPP) elicited by paw pressure both at the injured and at the controlateral side. The test was performed at day 14 post lesion. All compounds were tested for acute antinoceptive effects. Acute effects were determined within 60 min following a single intraperitoneal (i.p.) injection of the drugs prior to the test.
Each group of the rats received gabapentin at the dose of 30 mg/kg (175 μmoles/kg), or an equimolar dose of NO-gabapentin (175 μmoles/kg), or the same volume of vehicle (Control group). The drugs were dissolved (20 mg/mL) in vehicle containing saline: DMSO: Castor oil (68:8:24).

male Swiss mice [2] = assay: Writhing test (acetic acid-induced abdominal contractions); type: in vivo; settings: for Contractions number: 1 h before i.p. acetic acid, total contractions within 15 minutes
Protocol: Nine groups of male Swiss mice (20-25 g, Charles River), 10 animals each, received by oral administration through gastric tube (gavage) gabapentin in an amount of from 1 to 10 mg/kg or the compound of the invention (XVA, Example 1), hereinafter NO-gabapentin, in an amount of from 1 to 10 mg/kg dissolved in saline solution. One hour after administration of the compound solutions, through intraperitoneal injection the mice received a glacial acetic acid solution (0.5 ml, 0.6%). Within 15 minutes subsequent to the administration of acetic acid, in every animal the number of abdominal contractions was counted. Analysis was carried out in blind.
The results reported in Table 1 are given as the number of total contractions within the observation time (15 minutes).

male Swiss mice [3] = assay: Paw licking test (formalin injected in paw); type: in vivo; settings: for paw licking Phase I: phase I 0-15 minutes after formalin; for paw licking Phase I / paw licking Phase II: 3 mg/kg oral (gabapentin 17.5 μm/kg, NO-gabapentin 8.5 μm/kg), 1 h before formalin; for paw licking Phase II: phase II 15-30 minutes after formalin
Protocol: Three groups of male Swiss mice (20-25 g, Charles River), 10 animals each, received by oral administration as in Example F1 gabapentin in an amount of 3 mg/kg (17.5 μm/kg) or the compound of formula (XVA, Example 1), hereinafter NO-gabapentin, in an amount of 3 mg/kg (8.5 μm/kg) dissolved in saline solution. The control group received an equal volume of saline solution. One hour after administration of the compound solutions, the mice were injected with formalin in the paw (10 μl).
The formalin injection induced a biphasic reaction. In first phase (phase I, 0-15 minutes) an acute inflammation was observed; in the second phase (phase II, 15-30 minutes) a release of chemical mediators occurred as in neurophatic pain. Within 30 minutes subsequent to formalin injection, in each animal the time in seconds in which the animal licked its paw was recorded. Analysis was carried out in blind.
The results reported in Table 2 are expressed as the entire time in seconds in which paw licking in animals during the first and second phase as defined above was observed.

[4] = test system: human umbilical vein cells; assay: NO generation by NO-donors in endothelial cells (chemiluminescence); type: cell-based; settings: incubation of 100 μl nicorandil, 5 minutes
Protocol: Plated human umbilical vein cells with density of 10^3 cells/well, have been incubated 5 minutes with NO-donor scalar concentrations (1-100 μg/ml). Incubation medium (physiological solvent, i.e. Tyrode) has been then analysed to ascertain the ability to generate NO by means of: 1) nitric oxide detection by chemiluminescence, As far as chemiluminescence analysis is concerned, a 100 μl aliquot has been injected into reaction chamber of an chemiluminescence analyzer containing glacial acetic acid and potassium iodide. […] As usual in devices measuring chemiluminescence, the produced luminescence is directly proportional to the generated NO levels and can be measured by means of the suitable photomultiplier unity of an chemiluminescence analyzer. The photomultiplier turns incident light into electric voltage, that then is quantitatively registered. Referring to a calibration curve, obtained with scalar nitrite concentrations, it has been possible to quantitatively evaluate the concentration of the generated NO. For example, from incubation of […], an amount of about 10 μM NO was generated.

washed human platelets = assay: NO generation by NO-donors in platelets (chemiluminescence); type: cell-based; settings: incubation of 100 μM, 5 minutes
Protocol: Washed human platelets have been used, obtained as described by Radomski et al., (Br. J. Pharmacol. 92, 639-1987). Amounts of 0.4 ml were incubated 5 minutes with scalar NO-donor concentrations (1-100 μg/ml). […] As to the chemiluminescence assay, also in this case on the basis of a calibration curve plotted with nitrite scalar concentrations, it has been possible to quantitatively define the concentration of the generated NO. For example, after incubation of 100 μM nicorandil, an amount of 35 μM of NO was generated.

Row | SMILES | Vocalization threshold to pressure in the injured paw (VTPP) ([1]; 0 min post-dosing) [grams] | Vocalization threshold to pressure in the injured paw (VTPP) ([1]; 5 min post-dosing) [grams] | Vocalization threshold to pressure in the injured paw (VTPP) ([1]; 10 min post-dosing) [grams] | Vocalization threshold to pressure in the injured paw (VTPP) ([1]; 20 min post-dosing) [grams] | Vocalization threshold to pressure in the injured paw (VTPP) ([1]; 40 min post-dosing) [grams] | Vocalization threshold to pressure in the injured paw (VTPP) ([1]; 60 min post-dosing) [grams] | Contractions number (male Swiss mice [2]; dose 1 mg/kg oral) | Contractions number (male Swiss mice [2]; dose 3 mg/kg oral) | Contractions number (male Swiss mice [2]; dose 10 mg/kg oral) | paw licking Phase I (male Swiss mice [3]) [s] | paw licking Phase II (male Swiss mice [3]) [s] | antinoceptive efficacy compared with gabapentin ([1]; equimolar dose 175 μmoles/kg i.p.) | activity in inhibiting abdominal contraction amount, compared with gabapentin (male Swiss mice [2]; 1 to 10 mg/kg oral) | activity in inhibiting paw licking in first phase, compared with gabapentin (male Swiss mice [3]; phase I, molar dose corresponding to 50% of gabapentin) | effectiveness in second phase, compared with gabapentin (male Swiss mice [3]; phase II, molar dose corresponding to 50% of gabapentin) | amount of NO generated [4] | amount of NO generated (washed human platelets) [µM]
1 | NCC1(CC(=O)O)CCCCC1 [Gabapentin, 1-(aminomethyl)cyclohexaneacetic acid, reference compound] | 160 ± 10 | 165 ± 23 | 191 ± 29 | 250 ± 24 | 266 ± 26 | 250 ± 38 | 32 | 22 | 27 | 85 | 30 |  |  |  |  |  | 
2 | O=C(O)CC1(CNC(=O)c2ccc(CO[N+](=O)[O-])cc2)CCCCC1 [NO-gabapentin, 1-[4-(nitrooxymethyl)benzoylaminomethyl]-cyclohexaneacetic acid] | 153 ± 10 | 187 ± 10 | 307 ± 14 | 325 ± 08 | 390 ± 11 | 382 ± 09 | 24 | 15 | 15 | 50 | 60 | more efficacious than gabapentin | more active than precursor drug | more active than the starting drug | less effective |  | 
3 | O=C(NCCO[N+](=O)[O-])c1cccnc1 [nicorandil] |  |  |  |  |  |  |  |  |  |  |  |  |  |  |  | about 10 μM | 35
